According to ChEMBL document CHEMBL2331089, “Characterization, bioinformatic analysis and dithiocarbamate inhibition studies of two new α-carbonic anhydrases, CAH1 and CAH2, from the fruit fly Drosophila melanogaster” (Bioorg Med Chem, 2013):
Counter-ions that a name gives are not always drawn.

Key:
[1] = target: T1, Carbonic anhydrase 2, isoform A (Drosophila melanogaster, UniProt Q9VTU8); test: Inhibition of Drosophila melanogaster recombinant carbonic anhydrase-2 expressed in Escherichia coli BL21 (DE3) preincubated for 15 mins by CO2 hydration stopped-flow assay
T1 sequence (Q9VTU8 whole entry): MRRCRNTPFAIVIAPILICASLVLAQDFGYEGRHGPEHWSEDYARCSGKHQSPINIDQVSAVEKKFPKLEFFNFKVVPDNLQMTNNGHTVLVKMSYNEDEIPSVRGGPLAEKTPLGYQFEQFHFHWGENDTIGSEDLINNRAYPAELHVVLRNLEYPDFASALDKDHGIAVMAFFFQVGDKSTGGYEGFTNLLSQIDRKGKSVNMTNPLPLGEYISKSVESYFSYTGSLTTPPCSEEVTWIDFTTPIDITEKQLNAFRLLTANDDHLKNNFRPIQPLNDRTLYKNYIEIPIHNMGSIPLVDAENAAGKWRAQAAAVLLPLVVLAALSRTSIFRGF

Carbonic anhydrase 1 = target: T2, Carbonic anhydrase 1 (Drosophila melanogaster, UniProt Q9V396); test: Inhibition of Drosophila melanogaster recombinant carbonic anhydrase-1 expressed in Escherichia coli BL21 (DE3) preincubated for 15 mins by CO2 hydration stopped-flow assay
T2 sequence (Q9V396 whole entry): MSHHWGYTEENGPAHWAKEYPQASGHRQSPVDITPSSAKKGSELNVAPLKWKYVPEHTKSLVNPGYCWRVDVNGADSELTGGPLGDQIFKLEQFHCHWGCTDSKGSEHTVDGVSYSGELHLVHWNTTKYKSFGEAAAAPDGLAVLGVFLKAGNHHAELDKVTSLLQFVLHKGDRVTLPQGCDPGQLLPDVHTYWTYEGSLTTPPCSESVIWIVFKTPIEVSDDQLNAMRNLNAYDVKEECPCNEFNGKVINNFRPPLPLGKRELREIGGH

[2] = Inhibition of Drosophila melanogaster recombinant beat carbonic anhydrase expressed in Escherichia coli BL21 (DE3) preincubated for 15 mins by CO2 hydration stopped-flow assay

Compound | Ki [1] [nM] | Ki (Carbonic anhydrase 1) [nM] | Ki [2] [nM]
S=C(S)N1CCOCC1 [MORPHOLINECARBAMODITHIOATE SODIUM SALT] | 0.8 | 13.8 | –
CCC(C)NC(=S)S (racemic) | 0.9 | 325 | –
S=C(S)NCc1ccccc1 [SODIUM BENZYLCARBAMODITHIOATE] | 213 | 0.8 | –
S=C(S)NCCN(CCNC(=S)S)CNC(=S)S | 1.5 | 134 | –
S=C(S)NCc1ccncc1 | 58.8 | 35.1 | –
NCCCn1ccnc1.S=C(S)NCCCn1ccnc1 | 24.1 | 0.9 | –
CCCCN(CCCC)C(=S)S [DIBUTYLCARBAMODITHIOATE SODIUM SALT] | 0.5 | 17.1 | –
S=C(S)NN1CCOCC1 [POTASSIUM MORPHOLINOCARBAMODITHIOATE] | 20.7 | 13.1 | –
S=C(S)NCCN1CCOCC1 | 10.4 | 12.1 | –
CN(C)C(=S)S [SODIUM DIMETHYLCARBAMODITHIOATE] | 769 | 3460 | –
CN(Cc1ccccc1)C(=S)S [SODIUM BENZYL(METHYL)CARBAMODITHIOATE] | 12.4 | 50.2 | –
OCCN(CCO)C(=S)S | 134 | 3.2 | –
CC(=O)Nc1nnc(S(N)(=O)=O)s1 [ACETAZOLAMIDE] | – | – | 49
S=C(S)N1CCN(C(=S)S)CC1 [PIPERAZINECARBAMODITHIOATE DISODIUM SALT] | 21.6 | 0.9 | –
S=C(S)N1CCCC1 | 4.7 | 135 | –
S=C(S)Nc1ccccc1 [TRIETHYLAMMONIUM PHENYLCARBAMODITHIOATE] | 33.9 | 21.4 | –
S=C(S)NCCN1CCCCC1 | 26.7 | 57.1 | –
O=C(O)[C@@H]1CCCN1C(=S)S | 13.6 | 1.4 | –
CN(C(=S)S)c1ccccc1 [SODIUM METHYL(PHENYL)CARBAMODITHIOATE] | 5.9 | 67.1 | –
CCN(CC)C(=S)S [DITIOCARB SODIUM] | 654 | 2350 | –
CN1CCN(NC(=S)S)CC1 | 13.8 | 0.9 | –
CC(C)CN(CC(C)C)C(=S)S [DIISOBUTYLCARBODITHIOIC ACID SODIUM SALT] | 0.9 | 20.2 | –
CCCCCCN(CCCCCC)C(=S)S [DIHEXYLCARBAMODITHIOATE SODIUM SALT] | 3.8 | 1.4 | –
O=C(O)CNC(=S)S | 76.5 | 123 | –
CCCN(CCC)C(=S)S [DIPROPYLCARBAMODITHIOATE SODIUM SALT] | 3.9 | 23.4 | –
CCCCN(CC)C(=S)S [ETHYLBUTYLCARBAMODITHIOATE SODIUM SALT] | 21.9 | 10.5 | –
S=C(S)Nc1cccs1 | 3.9 | 0.5 | –
